This assay has as its system CEM cells HIV-1 protection, formazan growth assay. As to the kind of experiment: NCI AIDS Antiviral Assay. To be noted: for IC50: measured here: growth of uninfected CEM cells. The method in brief: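 Human CEM cells, uninfected and HIV-1-infected, received five drug concentrations, and growth was read by soluble formazan assay. Compounds giving at least 50% protection were retested; reproducible 100% protection defined confirmed active.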

In PubChem BioAssay AID179 (DTP/NCI, 2004) one finds EC50, IC50 and outcome data, which are given here for 19 compounds.

Calls of active or inactive are those of the source.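 Rule for the calls: active = compounds giving half or more protection of infected cells from virus-caused growth loss, again on retest; inactive = the rest.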

With `C=C1c2nc3ccccc3n2C=C(c2ccccc2)N1c1ccc(Cl)cc1`, the EC50 was over 200 µM and the IC50 was determined as 32.4 µM. In the case of `Nc1cccc2c1-c1c(cccc1[N+](=O)[O-])C2=O`, the result was inactive. Turning to `O=C(O)COc1ccc(C(=O)/C(SS/C(C(=O)c2ccc(OCC(=O)O)c(Cl)c2Cl)=C2\C=C(c3ccc(Br)cc3)SS2)=C2/C=C(c3ccc(Br)cc3)SS2)c(Cl)c1Cl`, the outcome was inactive. For the compound `C1CCSCCCCCSCCCCCSCCCCCSCC1`, the EC50 is over 200 µM and the IC50 stood at 44.7 µM. For the compound `CN(C)CCn1c2ccccc2c2nc3cc4ccccc4cc3nc21`, the EC50 is over 50.1 µM and the IC50 is 0.363 µM. In the case of `Clc1ccc(-n2nnc(C3=NCCN3)c2-c2ccccc2)cc1`, the EC50 is over 30.9 µM and the IC50 was over 30.9 µM. Take `Cc1cc(=O)n2c(nc3ccccc32)s1`: the EC50 was over 200 µM and the IC50 is over 200 µM. As to `COc1ccc(C2=NNC(=O)OC2c2ccccc2)cc1` (stereo not drawn), the EC50 was over 63.1 µM and the IC50 was found to be 7.24 µM. Turning to `CC12CC3CC(C)(C1)CC(SCCCCCN=C(N)CSSCC(N)=NCCCCCSC14CC5CC(C)(CC(C)(C5)C1)C4)(C3)C2`, the EC50 was over 200 µM and the IC50 came out at 26.9 µM. The matching figures for `Cc1c2ccccc2nc(CSOCCO)[n+]1[O-]`: over 200 µM and over 200 µM. As to `O=C(CCCN1CCC(O)(c2cccc(C(F)(F)F)c2)CC1)c1ccc(F)cc1`, the EC50 was over 302 µM and the IC50 came to 53.7 µM. Turning to `COc1cc2c3c(c1OC)-c1ccccc1C(C(OC(C)=O)c1ccccc1)C3N(C)CC2` (stereo not drawn), the result was inactive. As for `COc1ccc(C2N(c3ccc(F)cc3)C(=O)N3C(c4ccc(OC)cc4)N(c4ccc(F)cc4)C(=O)N23)cc1` (stereo not drawn), the EC50 was over 200 µM and the IC50 was over 200 µM. With `O=C1c2ccccc2N2OC3(N4CCCC4)CCCC3C12c1ccccc1` (stereo not drawn), the EC50 is over 38 µM and the IC50 was over 38 µM. On to `Cc1ccc(N=C(N)NC#N)cc1`, for which the EC50 was over 1450 µM and the IC50 is over 1450 µM. `O=C(NC1CCN(Cc2ccccc2)CC1)c1cccc(I)c1`: the EC50 is over 200 µM and the IC50 came out at 33.9 µM.

On to `NC1=NN(c2ccccc2)C(=O)C1C(=O)C(=O)Nc1cccc(C(F)(F)F)c1` (stereo not drawn), for which the outcome was inactive. Still for that read-out and setting: the entry for `COC(=O)C1=C(C(=O)OC)C2(C(=O)OC)OC1(OC)C(C1(C(=O)OC)C(C(=O)OC)=C1C(=O)OC)=C2C(=O)OC` (stereo not drawn) is “inactive”. Take `O=C(Nc1ccc(Oc2ccc(Cl)cc2)c(Cl)c1)c1cc(I)cc(I)c1O`: the EC50 is over 200 µM and the IC50 came out at 11.5 µM.

Usually EC50 stands for the concentration that produces a half-maximal response. As a reminder, the IC50 is the concentration needed to halve the response being measured.
